One test addresses Integrin alpha-V/beta-3 (Homo sapiens, UniProt P05106+P06756). The experiment in a line: Displacement of a non-peptide radioligand from human recombinant alphaV-beta3 integrin. Format: protein-complex assay.
The species entered for another test is Mus musculus. The test can be described thus: The ability of compound to inhibit the transformation of osteoblast-like cells originally derived from mouse calvaria, into osteoclasts by OCFORM assay. It counts as functional, cell-based.

Chain of Integrin alpha-V/beta-3 (P05106 27-788 limits assumed): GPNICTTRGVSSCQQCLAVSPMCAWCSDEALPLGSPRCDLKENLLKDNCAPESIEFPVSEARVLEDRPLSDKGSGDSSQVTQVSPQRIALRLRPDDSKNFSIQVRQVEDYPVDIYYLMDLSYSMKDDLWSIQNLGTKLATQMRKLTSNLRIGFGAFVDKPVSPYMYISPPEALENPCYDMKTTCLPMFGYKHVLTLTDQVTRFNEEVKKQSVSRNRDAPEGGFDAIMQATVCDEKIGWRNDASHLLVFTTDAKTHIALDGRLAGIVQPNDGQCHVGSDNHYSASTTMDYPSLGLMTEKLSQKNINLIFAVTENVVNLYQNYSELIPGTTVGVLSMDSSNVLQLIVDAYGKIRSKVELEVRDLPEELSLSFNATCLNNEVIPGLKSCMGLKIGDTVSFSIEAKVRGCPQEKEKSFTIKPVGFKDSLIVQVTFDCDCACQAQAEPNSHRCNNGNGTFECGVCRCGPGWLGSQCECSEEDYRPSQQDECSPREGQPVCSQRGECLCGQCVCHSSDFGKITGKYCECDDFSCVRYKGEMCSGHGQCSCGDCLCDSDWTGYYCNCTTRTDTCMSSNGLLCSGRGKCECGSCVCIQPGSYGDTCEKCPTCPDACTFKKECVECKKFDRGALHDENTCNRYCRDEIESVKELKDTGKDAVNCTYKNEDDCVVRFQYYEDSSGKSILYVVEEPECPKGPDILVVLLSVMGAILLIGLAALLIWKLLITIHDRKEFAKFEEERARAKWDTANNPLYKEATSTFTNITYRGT
Chain of Integrin alpha-V/beta-3 (P06756 31-889 limits assumed): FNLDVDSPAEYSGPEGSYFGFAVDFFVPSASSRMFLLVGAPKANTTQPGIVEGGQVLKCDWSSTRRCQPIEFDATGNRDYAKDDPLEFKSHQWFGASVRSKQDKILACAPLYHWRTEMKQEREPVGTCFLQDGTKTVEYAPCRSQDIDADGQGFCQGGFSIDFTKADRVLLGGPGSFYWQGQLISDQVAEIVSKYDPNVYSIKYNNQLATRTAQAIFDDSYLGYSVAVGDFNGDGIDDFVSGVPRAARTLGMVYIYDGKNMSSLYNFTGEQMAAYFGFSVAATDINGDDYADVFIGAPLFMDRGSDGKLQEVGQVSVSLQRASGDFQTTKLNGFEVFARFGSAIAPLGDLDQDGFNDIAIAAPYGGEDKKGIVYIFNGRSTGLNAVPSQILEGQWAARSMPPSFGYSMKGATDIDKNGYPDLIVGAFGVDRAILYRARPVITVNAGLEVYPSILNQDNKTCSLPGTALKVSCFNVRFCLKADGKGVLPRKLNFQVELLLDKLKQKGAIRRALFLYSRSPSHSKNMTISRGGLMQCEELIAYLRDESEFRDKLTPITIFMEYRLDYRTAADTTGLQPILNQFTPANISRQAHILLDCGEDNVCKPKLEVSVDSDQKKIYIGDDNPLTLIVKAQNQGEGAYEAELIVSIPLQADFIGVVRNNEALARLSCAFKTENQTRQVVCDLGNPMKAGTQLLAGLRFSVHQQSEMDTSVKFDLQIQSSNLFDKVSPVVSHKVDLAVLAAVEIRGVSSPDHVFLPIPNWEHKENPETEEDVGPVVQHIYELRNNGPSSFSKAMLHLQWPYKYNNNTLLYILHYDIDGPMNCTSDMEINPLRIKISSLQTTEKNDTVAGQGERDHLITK
Chain of Integrin alpha-V/beta-3 (P06756 891-1048 limits assumed): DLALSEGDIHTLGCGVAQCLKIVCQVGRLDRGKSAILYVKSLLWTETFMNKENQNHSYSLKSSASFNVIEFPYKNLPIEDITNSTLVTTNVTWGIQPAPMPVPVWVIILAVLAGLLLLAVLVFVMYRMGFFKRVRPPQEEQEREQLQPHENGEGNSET

In general, IC50 refers to the concentration that inhibits the measured activity by half. Turning to `N=C(N)NCCCCC(=O)NCC(=O)NCCC(=O)O`, the IC50 at Integrin alpha-V/beta-3 is above 10 µM. The compound `O=C(O)C[C@H](NC(=O)CN1CC[C@H](CCc2ccc3c(n2)NCCC3)C1=O)c1cccnc1` returned an IC50 in the test filed under Mus musculus of 0.062 µM. For the compound `N=C(N)NCCC[C@H](N)C(=O)NCC(=O)N[C@@H](CC(=O)O)C(=O)O`, the IC50 on Integrin alpha-V/beta-3 is above 10 µM. For the compound `O=C(O)C[C@H](NC(=O)CN1CC[C@@H](CCc2ccc3c(n2)NCCC3)C1=O)c1cccnc1`, the results for the IC50 in the test filed under Mus musculus and at Integrin alpha-V/beta-3 were 0.079 µM and 0.00094 µM, respectively. Turning to `O=C(O)C[C@H](NC(=O)CN1CCCC(CCc2ccc3c(n2)NCCC3)C1=O)c1cccnc1` (some centres undefined), the IC50 amounted to 0.48 µM in the test filed under Mus musculus and 0.0012 µM on Integrin alpha-V/beta-3. In the case of `O=C(O)C[C@H](NC(=O)CNC(=O)CCCc1ccc2c(n1)NCCC2)c1cccnc1`, the IC50 on Integrin alpha-V/beta-3 is 0.0013 µM.

For `O=C(O)CCNC(=O)CNC(=O)CCCc1ccc2c(n1)NCCC2`, the IC50 on Integrin alpha-V/beta-3 turned out to be 0.111 µM. On the same count and under the same terms, next, `C#C[C@H](CC(=O)O)NC(=O)CNC(=O)CCCc1ccc2c(n1)NCCC2`: 0.0088 µM. In the case of `C#C[C@H](CC(=O)O)NC(=O)CN1CC[C@H](CCc2ccc3c(n2)NCCC3)C1=O`, the figures for the IC50 in the test filed under Mus musculus and at Integrin alpha-V/beta-3 were 0.15 µM and 0.0029 µM, respectively.

In the case of `O=C(O)C[C@H](NC(=O)CN1CCN(CCc2ccc3c(n2)NCCC3)C1=O)c1cccnc1`, the IC50 in the test listed under Mus musculus is above 1 µM; on Integrin alpha-V/beta-3, 0.012 µM.

The record behind these values is ChEMBL document CHEMBL1135089, “Nonpeptide alpha(v)beta(3) antagonists. Part 2: constrained glycyl amides derived from the RGD tripeptide” (Bioorg Med Chem Lett, 2002).
